Assay: Stability of 2,2-dichloropropionic acid during prolonged storage (NMR impurity identification)
Assay type: physicochemical
Conditions: transforms into pyroracemic acid or alpha chloroacrylic acid
Text: The impurity identification of 2,2-dichloropropionic acid, taken as an example, has been conducted using the method of NMR spectroscopy on the ^1H and ^13C nuclei, one of the most informative methods, which allows to determine the composition of each impurity even if the numerous related compounds are found in the sample.

For `CC(Cl)(Cl)C(=O)O` [2,2-dichloropropionic acid], the “Stability to daylight and prolonged storage” value was “daylight-sensitive”.
